Results published in patent US8586579B2, “Anellated pyridine compounds” (Hoffmann-La Roche Inc., priority 2010, dated 2013).
pKi: −log10 of the molar value. Read-outs that look alike come from different tables or passages of the source.

What was measured:
[1] = target: human D2 receptor (Homo sapiens (Human), UniProt P14416); experiment: Radioligand binding assay, [3H]-spiperone, human D2 receptor; conditions: membranes of HEK293 EBNA cells expressing human D2; 0.7 nM [3H]-spiperone
Method in brief: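 Membranes from HEK293 EBNA cells transiently expressing human D2 were incubated 1 h at RT with ~0.7 nM [3H]-spiperone and ten compound concentrations (10 μM–0.1 nM) in Tris buffer with NaCl, MgCl2, KCl, CaCl2, EDTA, pH 7.4.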

[2] = target: human D3 receptor (Homo sapiens (Human), UniProt P35462); experiment: Radioligand binding assay, [3H]-spiperone, human D3 receptor; conditions: membranes of HEK293 EBNA cells expressing human D3; 0.5 nM [3H]-spiperone
Method in brief: (§1)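 Membranes from transiently transfected HEK293 EBNA cells were incubated 1 h at RT with ten compound concentrations (10 μM-0.1 nM) and radioligand: 0.5 nM [3H]-spiperone for D3 (Tris/NaCl/Mg/Ca buffer, pH 7.4) or 1.1 nM [3H]-ketanserin for 5-HT2A (Tris/MgCl2/EGTA, pH 7.4).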

[3] = target: human 5-HT2A receptor (Homo sapiens (Human), UniProt P28223); experiment: Radioligand binding assay, [3H]-ketanserin, human 5-HT2A receptor
Method in brief: as §1

[4] = membranes of HEK293 EBNA cells expressing human 5-HT2A, 1.1 nM [3H]-ketanserin

Chain of human D2 receptor (P14416 whole entry): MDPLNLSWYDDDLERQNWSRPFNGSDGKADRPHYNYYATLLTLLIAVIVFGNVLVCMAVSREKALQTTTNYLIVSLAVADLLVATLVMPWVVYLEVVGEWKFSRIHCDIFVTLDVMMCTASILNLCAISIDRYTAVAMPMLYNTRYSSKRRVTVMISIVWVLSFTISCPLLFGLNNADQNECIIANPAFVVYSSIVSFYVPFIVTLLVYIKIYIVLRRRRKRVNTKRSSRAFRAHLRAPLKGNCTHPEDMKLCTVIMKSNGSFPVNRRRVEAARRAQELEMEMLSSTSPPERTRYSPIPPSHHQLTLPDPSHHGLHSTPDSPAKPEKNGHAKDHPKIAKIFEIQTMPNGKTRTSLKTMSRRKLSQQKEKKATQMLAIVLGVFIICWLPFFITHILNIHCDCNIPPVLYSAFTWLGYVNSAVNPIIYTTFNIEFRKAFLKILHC
Chain of human D3 receptor (P35462 whole entry): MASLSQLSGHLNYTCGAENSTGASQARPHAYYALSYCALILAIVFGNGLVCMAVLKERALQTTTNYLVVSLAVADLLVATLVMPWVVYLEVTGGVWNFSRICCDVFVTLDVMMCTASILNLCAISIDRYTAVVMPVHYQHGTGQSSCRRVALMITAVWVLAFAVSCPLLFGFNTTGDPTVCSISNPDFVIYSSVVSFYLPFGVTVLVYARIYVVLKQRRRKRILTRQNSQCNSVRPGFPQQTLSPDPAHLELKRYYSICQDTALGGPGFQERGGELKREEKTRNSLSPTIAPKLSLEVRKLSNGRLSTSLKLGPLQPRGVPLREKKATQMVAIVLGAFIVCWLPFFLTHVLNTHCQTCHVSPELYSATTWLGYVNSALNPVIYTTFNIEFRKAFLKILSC
Chain of human 5-HT2A receptor (P28223 whole entry): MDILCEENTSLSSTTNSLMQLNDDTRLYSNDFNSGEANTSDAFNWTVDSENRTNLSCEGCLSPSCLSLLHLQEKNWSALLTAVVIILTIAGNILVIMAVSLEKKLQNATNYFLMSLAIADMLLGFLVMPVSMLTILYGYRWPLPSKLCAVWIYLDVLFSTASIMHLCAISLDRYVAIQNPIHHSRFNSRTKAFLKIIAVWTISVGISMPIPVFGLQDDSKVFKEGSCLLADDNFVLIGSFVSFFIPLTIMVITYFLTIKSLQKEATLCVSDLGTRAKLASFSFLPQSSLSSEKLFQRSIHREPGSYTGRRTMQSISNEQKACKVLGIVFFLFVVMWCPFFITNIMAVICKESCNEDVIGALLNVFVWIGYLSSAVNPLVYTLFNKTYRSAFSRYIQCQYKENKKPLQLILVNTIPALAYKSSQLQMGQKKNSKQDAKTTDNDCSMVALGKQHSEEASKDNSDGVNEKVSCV

Row | Compound | pKi [1] | pKi [2] | pKi [3, 4] | melting point [°C] | pKi [3]
1 | O=S(=O)(N[C@H]1CC[C@H](CCN2CCN(c3nccc4c3CCO4)CC2)CC1)c1ccc(F)cc1 [Example 50, trans-N-(4-{2-[4-(2,3-Dihydro-furo[3,2-c]pyridin-4-yl)-piperazin-1-yl]-ethyl}-cyclohexyl)-4-fluoro-benzenesulfonamide] | 6.62 | 8.17 | 7.40 | 221 | 
2 | O=C(CC1CC1)N[C@H]1CC[C@H](CCN2CCN(c3nccc4c3CCO4)CC2)CC1 [Example 51, trans-2-Cyclopropyl-N-(4-{2-[4-(2,3-dihydro-furo[3,2-c]pyridin-4-yl)-piperazin-1-yl]-ethyl}-cyclohexyl)-acetamide] | 6.23 | 8.29 |  | 193 | 7.86
3 | O=C(N[C@H]1CC[C@H](CCN2CCN(c3nccc4c3CCO4)CC2)CC1)C1CCC1 [Example 52, Cyclobutanecarboxylic acid trans-(4-{2-[4-(2,3-dihydro-furo[3,2-c]pyridin-4-yl)-piperazin-1-yl]-ethyl}-cyclohexyl)-amide] | 6.26 | 7.80 | 8.00 | 202 | 
4 | C[C@]1(O)CC[C@H](C(=O)N[C@H]2CC[C@H](CCN3CCN(c4nccc5c4CCO5)CC3)CC2)CC1 [Example 54, trans-4-Hydroxy-4-methyl-cyclohexanecarboxylic acid trans-(4-{2-[4-(2,3-dihydro-furo[3,2-c]pyridin-4-yl)-piperazin-1-yl]-ethyl}-cyclohexyl)-amide] | 6.30 | 7.29 | 7.90 | 171 | 
5 | C[C@]1(O)CC[C@@H](C(=O)N[C@H]2CC[C@H](CCN3CCN(c4nccc5c4CCO5)CC3)CC2)CC1 [Example 55, cis-4-Hydroxy-4-methyl-cyclohexanecarboxylic acid trans-(4-{2-[4-(2,3-dihydro-furo[3,2-c]pyridin-4-yl)-piperazin-1-yl]-ethyl}-cyclohexyl)-amide] | 6.32 | 7.34 | 8.21 | 216.5 | 
6 | O=C(N[C@H]1CC[C@H](CCN2CCN(c3nccc4c3CCO4)CC2)CC1)c1ccc(N2CCCCC2)cc1 [Example 56, trans-N-(4-{2-[4-(2,3-Dihydro-furo[3,2-c]pyridin-4-yl)-piperazin-1-yl]-ethyl}-cyclohexyl)-4-piperidin-1-yl-benzamide] | 5.27 | 7.35 |  | 214.5 | 7.72
7 | O=C(N[C@H]1CC[C@H](CCN2CCN(c3nccc4c3CCO4)CC2)CC1)c1ccc(N2CCOCC2)cc1 [Example 57, trans-N-(4-{2-[4-(2,3-Dihydro-furo[3,2-c]pyridin-4-yl)-piperazin-1-yl]-ethyl}-cyclohexyl)-4-morpholin-4-yl-benzamide] | 6.06 | 7.77 | 8.34 | 228.5 | 
8 | O=C(N[C@H]1CC[C@H](CCN2CCN(c3nccc4c3CCO4)CC2)CC1)C1(O)CC1 [Example 58, 1-Hydroxy-cyclopropanecarboxylic acid trans-(4-{2-[4-(2,3-dihydro-furo[3,2-c]pyridin-4-yl)-piperazin-1-yl]-ethyl}-cyclohexyl)-amide] | 6.23 | 7.57 | 8.23 | 174.5 | 
9 | N#CCC(=O)N[C@H]1CC[C@H](CCN2CCN(c3nccc4c3CCO4)CC2)CC1 [Example 59, trans-2-Cyano-N-(4-{2-[4-(2,3-dihydro-furo[3,2-c]pyridin-4-yl)-piperazin-1-yl]-ethyl}-cyclohexyl)-acetamide] | 6.15 | 8.11 |  | 188 | 7.80
10 | O=C(CC(F)(F)F)N[C@H]1CC[C@H](CCN2CCN(c3nccc4c3CCO4)CC2)CC1 [Example 60, trans-N-(4-{2-[4-(2,3-Dihydro-furo[3,2-c]pyridin-4-yl)-piperazin-1-yl]-ethyl}-cyclohexyl)-3,3,3-trifluoro-propionamide] | 6.16 | 8.18 | 7.96 | 195.5 | 
11 | O=C(N[C@H]1CC[C@H](CCN2CCN(c3nccc4c3CCO4)CC2)CC1)C1CC1 [Example 63, Cyclopropanecarboxylic acid trans-(4-{2-[4-(2,3-dihydro-furo[3,2-c]pyridin-4-yl)-piperazin-1-yl]-ethyl}-cyclohexyl)-amide] | 6.31 | 7.73 | 7.95 | 213 | 
12 | CO[C@H]1CC[C@H](CC(=O)N[C@H]2CC[C@H](CCN3CCN(c4nccc5c4CCO5)CC3)CC2)CC1 [Example 65, trans-N-(4-{2-[4-(2,3-Dihydro-furo[3,2-c]pyridin-4-yl)-piperazin-1-yl]-ethyl}-cyclohexyl)-2-trans-(4-methoxy-cyclohexyl)-acetamide] | 5.61 | 7.62 | 7.83 | 192.5 | 
13 | CN(C)S(=O)(=O)N[C@H]1CC[C@H](CCN2CCN(c3nccc4c3CCO4)CC2)CC1 [Example 66, N′-trans-(4-{2-[4-(2,3-dihydro-furo[3,2-c]pyridin-4-yl)-piperazin-1-yl]-ethyl}-cyclohexyl)-N,N-dimethyl-sulfamide] | 6.11 | 7.60 | 7.94 | 139.5 | 
14 | O=C(C[C@H]1CCCO1)N[C@H]1CC[C@H](CCN2CCN(c3nccc4c3CCO4)CC2)CC1 [Example 68, trans-N-(4-{2-[4-(2,3-Dihydro-furo[3,2-c]pyridin-4-yl)-piperazin-1-yl]-ethyl}-cyclohexyl)-2-(R)-(tetrahydro-furan-2-yl)-acetamide] | 6.04 | 7.57 |  | 183 | 7.84
15 | O=C(C[C@@H]1CCCO1)N[C@H]1CC[C@H](CCN2CCN(c3nccc4c3CCO4)CC2)CC1 [Example 69, trans-N-(4-{2-[4-(2,3-Dihydro-furo[3,2-c]pyridin-4-yl)-piperazin-1-yl]-ethyl}-cyclohexyl)-2-(S)-(tetrahydro-furan-2-yl)-acetamide] | 6.07 | 7.74 |  | 183.5 | 7.60
16 | CC(C)(C)C(=O)N[C@H]1CC[C@H](CCN2CCN(c3nccc4c3CCO4)CC2)CC1 [Example 70, trans-N-(4-{2-[4-(2,3-Dihydro-furo[3,2-c]pyridin-4-yl)-piperazin-1-yl]-ethyl}-cyclohexyl)-2,2-dimethyl-propionamide] | 6.28 | 7.23 |  | 185 | 8.03
17 | CC(C)CC(=O)N[C@H]1CC[C@H](CCN2CCN(c3nccc4c3CCO4)CC2)CC1 [Example 71, trans-N-(4-{2-[4-(2,3-Dihydro-furo[3,2-c]pyridin-4-yl)-piperazin-1-yl]-ethyl}-cyclohexyl)-3-methyl-butyramide] | 6.18 | 7.96 | 7.80 | 202.5 | 
18 | CC(C)(C)CC(=O)N[C@H]1CC[C@H](CCN2CCN(c3nccc4c3CCO4)CC2)CC1 [Example 72, trans-N-(4-{2-[4-(2,3-Dihydro-furo[3,2-c]pyridin-4-yl)-piperazin-1-yl]-ethyl}-cyclohexyl)-3,3-dimethyl-butyramide] | 6.35 | 7.77 | 7.79 | 192.5 | 
19 | O=C(CC1CCC1)N[C@H]1CC[C@H](CCN2CCN(c3nccc4c3CCO4)CC2)CC1 [Example 73, trans-2-Cyclobutyl-N-(4-{2-[4-(2,3-dihydro-furo[3,2-c]pyridin-4-yl)-piperazin-1-yl]-ethyl}-cyclohexyl)-acetamide] | 6.22 | 8.05 | 7.88 | 193 | 
20 | O=C(N[C@H]1CC[C@H](CCN2CCN(c3nccc4c3CCO4)CC2)CC1)C1CC1(F)F (stereo partly drawn) [Example 74, trans-2,2-Difluoro-cyclopropanecarboxylic acid (4-{2-[4-(2,3-dihydro-furo[3,2-c]pyridin-4-yl)-piperazin-1-yl]-ethyl}-cyclohexyl)-amide] | 6.36 | 7.62 | 7.76 | 184.5 | 
21 | CC(C)C(=O)N[C@H]1CC[C@H](CCN2CCN(c3nccc4c3CCO4)CC2)CC1 [Example 75, trans-N-(4-{2-[4-(2,3-Dihydro-furo[3,2-c]pyridin-4-yl)-piperazin-1-yl]-ethyl}-cyclohexyl)-isobutyramide] | 6.15 | 7.78 |  | 219 | 7.99
22 | O=C(CC1COC1)N[C@H]1CC[C@H](CCN2CCN(c3nccc4c3CCO4)CC2)CC1 [Example 77, trans-N-(4-{2-[4-(2,3-Dihydro-furo[3,2-c]pyridin-4-yl)-piperazin-1-yl]-ethyl}-cyclohexyl)-2-oxetan-3-yl-acetamide] | 6.12 | 7.92 | 7.96 | 195 | 
23 | CN(C)C(=O)N[C@H]1CC[C@H](CCN2CCN(c3nccc4c3CCO4)CC2)CC1 [Example 78, trans-3-(4-{2-[4-(2,3-Dihydro-furo[3,2-c]pyridin-4-yl)-piperazin-1-yl]-ethyl}-cyclohexyl)-1,1-dimethyl-urea] | 6.49 | 7.03 |  | 260 | 7.54
